Source: patent US10434101B2, “Heterocyclic compounds and uses thereof” (Celgene CAR LLC, priority 2010, dated 2019)

Experiments:
EGFR-WT = EGFR-WT (Homo sapiens (Human), UniProt P00533); test: Omnia assay, potency against EGFR (WT) active enzyme; assay type: biochemical; settings: [EGFR-WT]=5 nM, [ATP]=15 uM, 30 min pre-incubation
Method: Kinase reactions were started with the addition of 45 μL of the ATP/Tyr-Sox peptide substrate mix and monitored every 71 seconds for 60 minutes at λex360/λem485 in a Synergy^4 plate reader from BioTek (Winooski, Vt.).

A431 cells (WT EGFR) = test: Cell proliferation (CellTiter Glo, 72 hr) in A431 cells; assay type: cell-based; settings: Homo sapiens, A-431; A431 cells, 72 hr; read-out: WT EGFR GI50
Method: (§1) A431 human epidermoid carcinoma, H1975 human NSCLC and HCC827 human NSCLC adenocarcinoma cells were obtained from the American Type Culture Center (Manassas, Va.). A431 cells were grown in DMEM (Invitrogen, Carlsbad, Calif.) supplemented with 10% FBS (HyClone, South Logan, Utah) and 1% Penicillin-Streptomycin (P/S, Lonza, Walkersville, Md.).
(§2) Cells were plated in Growth Media supplemented with 5% FBS and 1% P/S at a density of 3,000 cells per well in 96 well tissue culture plates (Corning). […] Growth inhibition (GI50) values were determined by Graph Pad Prism.

[1] = system: H1975 cells (EGFR L858R/T790M); test: Cell proliferation (CellTiter Glo, 72 hr) in H1975 cells; assay type: cell-based, human; settings: for GI50: Homo sapiens, NCI-H1975, H1975 cells, 72 hr, read-out: H1975 GI50
Method: as §1, §2

[2] = system: HCC827 cells (EGFR delE746-A750); test: Cell proliferation (CellTiter Glo, 72 hr) in HCC827 cells; assay type: cell-based, human; settings: for GI50: Homo sapiens, HCC827 cells, 72 hr, read-out: HCC827 GI50
Method: as §1, §2

[3] = molecular target: EGFR double mutation L858R/T790M (H1975 cells) (Homo sapiens (Human), UniProt P00533, L858R/T790M); test: Phospho-EGFR signaling (immunoblotting, 1 hr) in H1975 cells; assay type: cell-based; settings: signaling EC50 WT (A431) / H1975
Method: as §1
(§3) All primary antibodies were obtained from Cell Signaling (Danvers, Mass.) and used at 1:1000. Secondary antibodies were used at 1:10,000. Goat anti-mouse IgG IRDye 800CW antibody was obtained from LiCor Biosciences (Lincoln, Nebr.) and goat anti-rabbit IgG Alexa Fluor 680 was obtained from Invitrogen.
(§4) Cells were grown in 12-well plates (Corning, Coring, N.Y.) to 90% confluence and then incubated in low-serum (0.1% FBS) media for 16-18 hr. […] A431 cells were then stimulated with 50 ng/ml EGF (Peprotech, Rocky Hill, N.J.) for 15 min. After treatment, cell monolayers were washed with cold PBS (Invitrogen) and immediately lysed by scrapping into 60 uL cold Cell Extraction Buffer (Invitrogen) supplemented with Complete Protease inhibitors (Roche, Indianapolis, Ind.) and PhosphoSTOP (Roche) phosphatase inhibitors.
(§5) Phospho-protein signals were quantitated using Odyssey Infrared Imaging (Li-Cor Biosciences).
(§6) To assess phosphor-EGFR signaling, blots were probed with rabbit anti-Phospho-EGFR (Y1068) and mouse total anti-EGFR antibodies. Phospho-EGFR signal was normalized to total EGFR expression for each sample. […] Normalized data was fitted using a sigmoidal curve analysis program (Graph Pad Prism version 5) with variable Hill slope to determine the EC50 values.

[4] = molecular target: EGFR delE746-A750 deletion mutation (HCC827 cells) (Homo sapiens (Human), UniProt P00533, DEL746-750); test: Phospho-EGFR signaling (immunoblotting, 1 hr) in HCC827 cells; assay type: cell-based; settings: signaling EC50 WT (A431) / HCC827
Method: as §1, §3, §4, §5, §6

Row | IC50 (EGFR-WT) [nM] | GI50 (A431 cells (WT EGFR)) [nM] | GI50 [1] [nM] | GI50 [2] [nM] | Ratio WT/mutant (H1975) [3] | Ratio WT/mutant (HCC827) [4] | SMILES | Ratio WT/mutant (H1975) ([1]; proliferation GI50 WT (A431) / H1975) | Ratio WT/mutant (HCC827) ([2]; proliferation GI50 WT (A431) / HCC827)
1 | 30 to 100 | > 1000 | 500 to 1000 | 100 to 500 | – | – | C=CC(=O)Nc1cccc(Nc2nc(Nc3ccc(N4CCOCC4)cc3OC)ncc2Cl)c1 [Compound I-15, N-(3-(5-chloro-2-(2-methoxy-4-morpholinophenylamino)pyrimidin-4-ylamino)phenyl)acrylamide] | >1 | >10
2 | – | > 1000 | 100 to 500 | 10 to 100 | >30 | >5 | C=CC(=O)Nc1cccc(Nc2nc(Nc3ccc(N4CCN(S(C)(=O)=O)CC4)cc3OC)ncc2C(F)(F)F)c1 [Compound I-17, N-(3-(2-(2-methoxy-4-(4-(methylsulfonyl)piperazin-1-yl)phenylamino)-5-(trifluoromethyl)pyrimidin-4-ylamino)phenyl)acrylamide] | – | –
